This is an account of results in PubChem BioAssay (NCI).

Molecules are shown by their SMILES.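 Assay format: 96-well plates, 48-hour exposure. GI50 = concentration required for 50% inhibition of growth. TGI is the concentration that stops growth completely.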

Test systems include CCRF-CEM leukemia; HCT-15 colon; IGROV1 ovarian; MOLT-4 leukemia; NCI-H460 lung; RPMI-8226 leukemia; SF-268 CNS; SF-295 CNS; SK-MEL-28 melanoma; U251 CNS; K-562 leukemia.
Holding throughout (assay): NCI-60 cell line screen, 48 h

As for `CC(C)c1cc(CN(C)C)c(O)c(C(C)(C)C)c1`, the TGI in the experiment on CCRF-CEM leukemia is 30 µM; with HCT-15 colon, 63.3 µM; in the experiment with IGROV1 ovarian it was more than 100 µM; with MOLT-4 leukemia, 42.5 µM; in the experiment with NCI-H460 lung, 32.3 µM; in the experiment with RPMI-8226 leukemia, 32.3 µM. Moreover, the TGI stood at 58.4 µM in the experiment on SF-268 CNS, 37.4 µM in the experiment on SF-295 CNS, 69.3 µM with SK-MEL-28 melanoma and 30 µM with U251 CNS.
As to `CCOC(=O)C12CCC(=O)C=C1[C@@H](C)C(=O)CC2` (stereo partly drawn), the TGI with HCT-15 colon, in the experiment with IGROV1 ovarian, in the experiment with NCI-H460 lung, with RPMI-8226 leukemia, with SF-268 CNS and in the experiment with SF-295 CNS was more than 100 µM each time. Also, the TGI with SK-MEL-28 melanoma and in the experiment on U251 CNS was more than 100 µM throughout.
Regarding `Nc1nc(N)c2c(n1)NC(=O)c1c(c3ccccc3n1Cc1ccc(Cl)cc1)C2`, the TGI with CCRF-CEM leukemia was 42.8 µM; in the experiment on HCT-15 colon, 35.6 µM; in the experiment on IGROV1 ovarian, more than 100 µM; in the experiment on K-562 leukemia it was more than 100 µM; in the experiment with MOLT-4 leukemia, 72 µM; with NCI-H460 lung it was 36.8 µM. The TGI is more than 100 µM in the experiment on SF-268 CNS, 84.7 µM with SF-295 CNS, more than 100 µM in the experiment with SK-MEL-28 melanoma and more than 100 µM with U251 CNS.
In the case of `CC(C)(C)N1C(C(=O)c2ccccc2)C1c1ccccc1` (stereo not drawn), the TGI in the experiment on CCRF-CEM leukemia, in the experiment with HCT-15 colon, with IGROV1 ovarian, in the experiment with K-562 leukemia, in the experiment on MOLT-4 leukemia and in the experiment on NCI-H460 lung was more than 100 µM throughout. Besides, the TGI in the experiment on RPMI-8226 leukemia, in the experiment on SK-MEL-28 melanoma and in the experiment on U251 CNS was more than 100 µM in each case.
Take `C#CCOc1c(C(=O)OCC)c(=O)n(C)c2ccccc12`: the TGI in the experiment on CCRF-CEM leukemia, in the experiment with HCT-15 colon, in the experiment with IGROV1 ovarian, in the experiment on K-562 leukemia, with MOLT-4 leukemia and in the experiment with NCI-H460 lung was more than 100 µM throughout. In addition, the TGI with RPMI-8226 leukemia, in the experiment on SF-268 CNS, in the experiment with SF-295 CNS, with SK-MEL-28 melanoma and with U251 CNS was more than 100 µM each time.
Turning to `CC(=O)OC(C)C1C2=C(C(=O)CC1(C)O)C(=O)c1c(ccc(-c3ccc4c(c3O)C(=O)C3=C(C4=O)C(C(C)OC(C)=O)C(C)(O)CC3=O)c1O)C2=O` (stereo not drawn), the TGI was more than 100 µM in the experiment on CCRF-CEM leukemia; 5.49 µM in the experiment on HCT-15 colon; 22.4 µM with IGROV1 ovarian; more than 100 µM in the experiment with K-562 leukemia; more than 100 µM in the experiment on MOLT-4 leukemia; 21.7 µM in the experiment on NCI-H460 lung. The TGI is more than 100 µM with RPMI-8226 leukemia; 19.4 µM in the experiment with SF-268 CNS; 24 µM with SF-295 CNS; 4.7 µM in the experiment on SK-MEL-28 melanoma; 12.9 µM in the experiment with U251 CNS.
`NC(=O)C(N)=O`: the TGI in the experiment on CCRF-CEM leukemia, in the experiment with HCT-15 colon, with K-562 leukemia, in the experiment on MOLT-4 leukemia, in the experiment with NCI-H460 lung and with RPMI-8226 leukemia was more than 100 µM in each case. In addition, the TGI with SF-268 CNS, with SF-295 CNS, in the experiment with SK-MEL-28 melanoma and with U251 CNS was more than 100 µM throughout.
On to `CC(C)=CCNc1ncnc2nc[nH]c12`, for which the TGI with CCRF-CEM leukemia, in the experiment on HCT-15 colon, in the experiment with IGROV1 ovarian, in the experiment with K-562 leukemia, with MOLT-4 leukemia and with NCI-H460 lung was more than 100 µM each time. Also, the TGI with RPMI-8226 leukemia, in the experiment with SF-268 CNS, with SF-295 CNS, with SK-MEL-28 melanoma and in the experiment with U251 CNS was more than 100 µM each time.
With `COC(=O)Nc1nc2cc(OC)c(OC)cc2c(=O)[nH]1`, the TGI in the experiment on CCRF-CEM leukemia, in the experiment on HCT-15 colon, in the experiment with IGROV1 ovarian, in the experiment on K-562 leukemia, with MOLT-4 leukemia and in the experiment with NCI-H460 lung was more than 100 µM each time. In addition, the TGI in the experiment on SF-268 CNS is more than 100 µM; in the experiment with SF-295 CNS, 37 µM; with SK-MEL-28 melanoma, more than 100 µM; in the experiment with U251 CNS it was more than 100 µM.
For the molecule `O=C(CSc1nc2ccccc2s1)c1sc2sc3ccccc3[n+]2c1[O-]`, the TGI in the experiment with HCT-15 colon, in the experiment with IGROV1 ovarian, with K-562 leukemia, with MOLT-4 leukemia, in the experiment on NCI-H460 lung and in the experiment on RPMI-8226 leukemia was more than 100 µM throughout. Moreover, the TGI in the experiment on SF-268 CNS, with SF-295 CNS, with SK-MEL-28 melanoma and with U251 CNS was more than 100 µM each time.
For `COc1ccc(C[C@H](N)C(=O)NC2C(CO)OC(n3cnc4c(N(C)C)ncnc43)C2O)cc1` (stereo partly drawn), the TGI in the experiment with CCRF-CEM leukemia came to 0.845 µM; in the experiment on HCT-15 colon, 11.9 µM; in the experiment with IGROV1 ovarian it was 2.66 µM; with K-562 leukemia, 1.16 µM; with MOLT-4 leukemia it was 0.412 µM; with NCI-H460 lung it was 1.15 µM. Moreover, the TGI in the experiment with RPMI-8226 leukemia is 1.3 µM; in the experiment on SF-268 CNS it was 2.61 µM; in the experiment on SF-295 CNS, 1.57 µM; in the experiment with SK-MEL-28 melanoma it was 0.481 µM; in the experiment on U251 CNS, 0.131 µM.
In the case of `O=C(CNc1cccc([N+](=O)[O-])c1)Nn1c(-c2ccccc2)nc2ccccc2c1=O`, the TGI in the experiment on CCRF-CEM leukemia amounted to 1.15 µM; with HCT-15 colon it was 2.23 µM; in the experiment with IGROV1 ovarian it was 0.482 µM; in the experiment on MOLT-4 leukemia, 0.818 µM; with RPMI-8226 leukemia, 3.36 µM; in the experiment with SF-268 CNS it was 4.22 µM. Also, the figures for the TGI with SF-295 CNS, in the experiment on SK-MEL-28 melanoma and in the experiment with U251 CNS were 3.28 µM, 3.04 µM and 2.88 µM, respectively.
With `N#CCCCC[N+]12CN3CN(CN(C3)C1)C2`, the TGI with CCRF-CEM leukemia, in the experiment with HCT-15 colon, in the experiment with IGROV1 ovarian, with K-562 leukemia, with MOLT-4 leukemia and in the experiment on NCI-H460 lung was more than 100 µM throughout. Moreover, the TGI in the experiment with RPMI-8226 leukemia, with SF-268 CNS, with SF-295 CNS, with SK-MEL-28 melanoma and in the experiment with U251 CNS was more than 100 µM each time.
Regarding `N#CN=C(N)NC(=O)/C=C/C=C/c1ccc(Cl)cc1`, the TGI in the experiment with CCRF-CEM leukemia, with HCT-15 colon, with IGROV1 ovarian, in the experiment with K-562 leukemia, with MOLT-4 leukemia and in the experiment with NCI-H460 lung was more than 100 µM throughout. The TGI in the experiment on RPMI-8226 leukemia, with SF-268 CNS, with SF-295 CNS, in the experiment with SK-MEL-28 melanoma and with U251 CNS was more than 100 µM throughout.
On to `N=C(c1ccc2ccccc2c1)c1ccccc1Cc1ccccc1`, for which the TGI is 82.8 µM in the experiment on CCRF-CEM leukemia; more than 100 µM in the experiment on HCT-15 colon; more than 100 µM with IGROV1 ovarian; more than 100 µM in the experiment with K-562 leukemia; 67.8 µM in the experiment on MOLT-4 leukemia; more than 100 µM in the experiment on NCI-H460 lung. The TGI with RPMI-8226 leukemia, with SF-295 CNS, in the experiment on SK-MEL-28 melanoma and in the experiment on U251 CNS was more than 100 µM throughout.
With `O=c1ccc2nc(-c3ccccc3)nn(-c3ccccn3)c-2c1`, the GI50 in the experiment on IGROV1 ovarian is 14.1 µM; in the experiment with MOLT-4 leukemia, 1.79 µM; in the experiment on NCI-H460 lung, 70.2 µM; in the experiment with RPMI-8226 leukemia it was 5.32 µM; in the experiment with SF-268 CNS, 19 µM; with SF-295 CNS, 31 µM. Besides, the GI50 with SK-MEL-28 melanoma was 12.3 µM; in the experiment with U251 CNS, 17.2 µM. In addition, the TGI in the experiment with IGROV1 ovarian was 45.4 µM; in the experiment on MOLT-4 leukemia, 6.21 µM; in the experiment with NCI-H460 lung it was more than 100 µM; with RPMI-8226 leukemia, 63.1 µM; in the experiment with SF-268 CNS it was 41 µM; with SF-295 CNS, more than 100 µM. The TGI was determined as 29.8 µM with SK-MEL-28 melanoma and 42.4 µM with U251 CNS.
